pIC50: −log10 of the molar value. Some results are limits rather than exact numbers.

The test system of experiment [1] is Blood cancer cells RS4; 11. The experiment in a line: CellTiter Glo test: growth inhibition of cells. It counts as cell-based. The note with it: Homo sapiens, 11 cells, 72 h, cell viability. As to the method:
Test of Candidate Compounds on Growth Inhibition of Cells Determined by CellTiter Glo
Blood cancer cells RS4; 11 were inoculated into the 96-well cell culture plate through Multidrop 3000 cells per well, with a volume of 100 μL. The final compound concentration ranged from 50 μM to 0.01 μM at 9 concentration gradients and the DMSO final concentration was 0.1%. The cells and compounds were co-incubated in a cell incubator at 37° C. for 72 h, a CellTiter-Glo Luminescent Cell Viability Assay reagent was added 100 μL/well, the cells and compound were uniformly mixed and incubated at room temperature for 10 min, and Envision reading was performed. A sample treated with 50 μM of a positive compound was taken as a positive control and a sample treated with 100 nL of DMSO was taken as a negative control.
For orientation: In ATP-based viability assays light output follows the ATP content of the culture.

In experiment [2] the target is MDM2 (Homo sapiens, UniProt Q00987). Description: HTRF test: inhibition of MDM2-p53 protein binding. For orientation: TR-FRET usually uses a lanthanide donor and a delayed reading to cut background.
MDM2, sequence (Q00987 2-138): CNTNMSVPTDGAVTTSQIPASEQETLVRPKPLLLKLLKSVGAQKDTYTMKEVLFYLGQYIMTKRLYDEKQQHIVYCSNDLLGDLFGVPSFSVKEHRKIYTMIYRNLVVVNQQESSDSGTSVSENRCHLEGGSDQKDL
Experiment [3] deals with T1, MDMX (Homo sapiens, UniProt O15151).
T1 sequence (O15151 2-134): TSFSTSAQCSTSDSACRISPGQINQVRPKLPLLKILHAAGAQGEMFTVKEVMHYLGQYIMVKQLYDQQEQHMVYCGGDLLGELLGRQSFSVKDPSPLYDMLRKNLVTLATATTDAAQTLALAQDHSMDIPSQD
Description: HTRF test: inhibition of MDMX-p53 protein binding.

By pIC50 is commonly meant the negative decadic logarithm of the IC50, by convention in mol/L. Read a high pIC50 as a small IC50. Regarding `O=C1N/C(=C\c2c[nH]c3c(F)c(Cl)ccc23)C(=O)N1C(CO)c1ccc(Cl)cc1F` (stereo not drawn) [Compound 99, (Z)-3-(1-(4-chloro-2-fluorophenyl)-2-hydroxyethyl)-5-((6-chloro-7-fluoro-1H-indol-3-yl)methylene)imidazolidine-2,4-dione], the negative logarithm of the IC50 (pIC50) in experiment [1] was no less than 6.00; in experiment [2], 7.00 to 8.00; in experiment [3], 7.00 to 8.00.

On to `COc1c(Cl)ccc2c(/C=C3\NC(=O)N(Cc4ccc(F)c(F)c4)C3=O)c[nH]c12` [Compound 8, (Z)-5-((6-chloro-7-methoxyl-1H-indol-3-yl)methylene)-3-(3,4-difluorobenzyl)imidazolidine-2,4-dione], for which the values for the pIC50 in experiment [1], in experiment [2] and in experiment [3] were 5.00 to 6.00, 7.00 to 8.00 and 7.00 to 8.00, respectively.

With `O=C1N/C(=C\c2c[nH]c3c(F)c(Cl)ccc23)C(=O)N1C(CO)c1ccc(F)cc1` (stereo not drawn) [Compound 84, (Z)-5-((6-chloro-7-fluoro-1H-indol-3-yl)methylene)-3-(1-(4-fluorophenyl)-2-hydroxyethyl)imidazolidine-2,4-dione], the pIC50 is no less than 6.00 in experiment [1], greater than 8.00 in experiment [2] and greater than 8.00 in experiment [3].

With `Cc1c(Cl)ccc2c(/C=C3\NC(=O)N([C@@H](CO)c4ccc(C#N)cc4)C3=O)c[nH]c12` [Compound 96, (R,Z)-4-(1-(4-((6-chloro-7-methyl-1H-indol-3-yl)methylene)-2,5-dioxoimidazolidin-1-yl)-2-hydroxyethyl)benzonitrile], the figures for the pIC50 in experiment [1], in experiment [2] and in experiment [3] were no less than 6.00, greater than 8.00 and greater than 8.00, respectively.

Regarding `Cc1c(Cl)ccc2c(/C=C3\NC(=O)N(C(C(=O)NCCO)c4ccc(Cl)cc4)C3=O)c[nH]c12` (stereo not drawn) [Compound 48, (Z)-2-(4-((6-chloro-7-methyl-1H-indol-3-yl)methylene)-2,5-dioxoimidazolidin-1-yl)-2-(4-chlorophenyl)-N-(2-hydroxyethyl)acetamide], the results for the pIC50 in experiment [1], in experiment [2] and in experiment [3] were no less than 6.00, greater than 8.00 and greater than 8.00, respectively.

Take `O=C1N/C(=C\c2c[nH]c3c(OCF)c(Cl)ccc23)C(=O)N1Cc1ccc(Cl)cc1` [Compound 12, (Z)-5-((6-chloro-7-(fluoromethoxyl)-1H-indol-3-yl)methylene)-3-(4-chlorobenzyl)imidazolidine-2,4-dione]: the pIC50 was less than 5.00 in experiment [1], 7.00 to 8.00 in experiment [2] and 7.00 to 8.00 in experiment [3].

Take `O=C(NC(CO)CO)C(c1ccc(F)c(F)c1)N1C(=O)N/C(=C\c2c[nH]c3cc(Cl)ccc23)C1=O` (stereo not drawn) [Compound 24, (Z)-2-(4-((6-chloro-1H-indol-3-yl)methylene)-2,5-dioxoimidazolidin-1-yl)-2-(3,4-difluorophenyl)-N-(1,3-dihydroxypropan-2-yl)acetamide]: the pIC50 in experiment [1] was 5.00 to 6.00; in experiment [2], 7.00 to 8.00; in experiment [3], 7.00 to 8.00.

`N#Cc1ccc(C(C(=O)NC(CO)CO)N2C(=O)N/C(=C\c3c[nH]c4cc(Cl)ccc34)C2=O)cc1` (stereo not drawn) [Compound 31, (Z)-2-(4-((6-chloro-1H-indol-3-yl)methylene)-2,5-dioxoimidazolidin-1-yl)-2-(4-cyanophenyl)-N-(1,3-dihydroxypropan-2-yl)acetamide]: the pIC50 in experiment [1] was 5.00 to 6.00; in experiment [2] it was 7.00 to 8.00; in experiment [3], 7.00 to 8.00.

On to `O=C1N/C(=C\c2c[nH]c3c(F)c(Cl)ccc23)C(=O)N1Cc1c(F)cc(Cl)cc1F` [Compound 102, (Z)-3-(4-chloro-2,6-difluorobenzyl)-5-((6-chloro-7-fluoro-1H-indol-3-yl)methylene)imidazolidine-2,4-dione], for which the pIC50 in experiment [1] is no less than 6.00; in experiment [2], 7.00 to 8.00; in experiment [3], 7.00 to 8.00.

With `Cc1c(Cl)ccc2c(/C=C3\NC(=O)N([C@H](CO)c4ccc(C#N)cc4)C3=O)c[nH]c12` [Compound 97, (S,Z)-4-(1-(4-((6-chloro-7-methyl-1H-indol-3-yl)methylene)-2,5-dioxoimidazolidin-1-yl)-2-hydroxyethyl)benzonitrile], the pIC50 in experiment [1] was no less than 6.00; in experiment [2], 7.00 to 8.00; in experiment [3], 7.00 to 8.00.

Take `N#Cc1ccc(C(CO)N2C(=O)N/C(=C\c3c[nH]c4c(F)c(Cl)ccc34)C2=O)cc1F` (stereo not drawn) [Compound 37, (Z)-4-(1-(4-((6-chloro-7-fluoro-1H-indol-3-yl)methylene)-2,5-dioxoimidazolidin-1-yl)-2-hydroxyethyl)-2-fluorobenzonitrile]: the figures for the pIC50 in experiment [1], in experiment [2] and in experiment [3] were no less than 6.00, 7.00 to 8.00 and 7.00 to 8.00, respectively.

Turning to `N#Cc1cc(F)c(CN2C(=O)N/C(=C\c3c[nH]c4c(F)c(Cl)ccc34)C2=O)cc1F` [Compound 36, 4-{[(4Z)-4-[(6-chloro-7-fluoro-1H-indol-3-yl)methylene]-2,5-dioxoimidazolidin-1-yl]methyl}-2,5-difluorobenzonitrile], the pIC50 is no less than 6.00 in experiment [1], greater than 8.00 in experiment [2] and 7.00 to 8.00 in experiment [3].

As to `O=C1N/C(=C\c2c[nH]c3cc(Cl)ccc23)C(=O)N1[C@@H](CO)c1ccc(F)c(F)c1` [Compound 54, (R,Z)-5-((6-chloro-1H-indol-3-yl)methylene)-3-(1-(3,4-difluorophenyl)-2-hydroxyethyl)imidazolidine-2,4-dione], the values for the pIC50 in experiment [1], in experiment [2] and in experiment [3] were no less than 6.00, 7.00 to 8.00 and 7.00 to 8.00, respectively.

With `N#Cc1ccc(C(C(=O)NCCO)N2C(=O)N/C(=C\c3c[nH]c4c(F)c(Cl)ccc34)C2=O)cc1` (stereo not drawn) [Compound 58, (Z)-2-(4-((6-chloro-7-fluoro-1H-indol-3-yl)methylene)-2,5-dioxoimidazolidin-1-yl)-2-(4-cyanophenyl)-N-(2-hydroxyethyl)acetamide], the pIC50 in experiment [1] was no less than 6.00; in experiment [2], greater than 8.00; in experiment [3], greater than 8.00.

On to `Cc1c(Cl)ccc2c(/C=C3\NC(=O)N(C(C(=O)NC(CO)(CO)CO)c4ccc(F)c(F)c4)C3=O)c[nH]c12` (stereo not drawn) [Compound 30, (Z)-2-(4-((6-chloro-7-methyl-1H-indol-3-yl)methylene)-2,5-dioxoimidazolidin-1-yl)-2-(3,4-difluorophenyl)-N-(1,3-dyhydroxl-2-(hydroxymethyl)-2-propyl)acetamide], for which the results for the pIC50 in experiment [1], in experiment [2] and in experiment [3] were no less than 6.00, greater than 8.00 and greater than 8.00, respectively.

Consider `O=C1N/C(=C\c2c[nH]c3c(F)c(Cl)ccc23)C(=O)N1C(CO)c1cc(F)c(Cl)c(F)c1` (stereo not drawn) [Compound 107, (Z)-3-(1-(4-chloro-3,5-difluorophenyl)-2-hydroxyethyl)-5-((6-chloro-7-fluoro-1H-indol-3-yl)methylene)imidazolidine-2,4-dione], for which the pIC50 in experiment [1] is no less than 6.00; in experiment [2], 7.00 to 8.00; in experiment [3] it was 7.00 to 8.00.

For the compound `O=C(NC(CO)CO)C(c1ccc(Cl)cc1)N1C(=O)N/C(=C\c2c[nH]c3c(F)c(Cl)ccc23)C1=O` (stereo not drawn) [Compound 28, (Z)-2-(4-((6-chloro-7-fluoro-1H-indol-3-yl)methylene)-2,5-dioxoimidazolidin-1-yl)-2-(4-chlorophenyl)-N-(1,3-dihydroxypropan-2-yl)acetamide], the pIC50 in experiment [1] is no less than 6.00; in experiment [2] it was greater than 8.00; in experiment [3], greater than 8.00.

For the compound `O=C1N/C(=C\c2c[nH]c3c(F)c(Cl)ccc23)C(=O)N1C(CO)c1ccc(Cl)c(F)c1F` (stereo not drawn) [Compound 105, (Z)-3-(1-(4-chloro-2,3-difluorophenyl)-2-hydroxyethyl)-5-((6-chloro-7-fluoro-1H-indol-3-yl)methylene)imidazolidine-2,4-dione], the pIC50 is no less than 6.00 in experiment [1], 7.00 to 8.00 in experiment [2] and 7.00 to 8.00 in experiment [3].

Turning to `Cc1c(Cl)ccc2c(/C=C3\NC(=O)N(C(CO)c4ccc(Cl)c(F)c4)C3=O)c[nH]c12` (stereo not drawn) [Compound 78, (Z)-3-(1-(4-chloro-3-fluorophenyl)-2-hydroxyethyl)-5-((6-chloro-7-methyl-1H-indol-3-yl)methylene)imidazolidine-2,4-dione], the pIC50 in experiment [1] was no less than 6.00; in experiment [2], 7.00 to 8.00; in experiment [3], 7.00 to 8.00.

Take `N#Cc1ccc(CN2C(=O)N/C(=C\c3c[nH]c4cc(Cl)ccc34)C2=O)cc1F` [Compound 20, (Z)-4-((4-((6-chloro-1H-indol-3-yl)methylene)-2,5-dioxoimidazolidin-1-yl)methyl)-2-fluorobenzonitrile]: the pIC50 in experiment [1] was no less than 6.00; in experiment [2] it was 7.00 to 8.00; in experiment [3], 7.00 to 8.00.

In the case of `O=C1N/C(=C\c2c[nH]c3cc(Br)ccc23)C(=O)N1Cc1ccc(Cl)cc1` [Compound 5, (Z)-5-((6-bromo-1H-indol-3-yl)methylene)-3-(4-chlorobenzyl)imidazolidine-2,4-dione], the pIC50 in experiment [1] was 5.00 to 6.00; in experiment [2], 7.00 to 8.00; in experiment [3], 7.00 to 8.00.

`O=C1N/C(=C\c2c[nH]c3cc(Cl)ccc23)C(=O)N1C(CO)c1ccc(F)c(F)c1` (stereo not drawn) [Compound 26]: the results for the negative-log IC50 (pIC50) in experiment [1], in experiment [2] and in experiment [3] were no less than 6.00, greater than 8.00 and greater than 8.00, respectively.

For `O=C1N/C(=C\c2c[nH]c3c(F)c(Cl)ccc23)C(=O)N1C(CO)c1ccc(Cl)cc1` (stereo not drawn) [Compound 69, (Z)-5-((6-chloro-7-fluoro-1H-indol-3-yl)methylene)-3-(1-(4-chlorophenyl)-2-hydroxyethyl)imidazolidine-2,4-dione], the figures for the pIC50 in experiment [1], in experiment [2] and in experiment [3] were no less than 6.00, 7.00 to 8.00 and 7.00 to 8.00, respectively.

(Values after patent publication US20250223307A1, “MDM2/MDMX DOUBLE-TARGET INHIBITOR COMPOUND, PRODRUG, PHARMACEUTICAL COMPOSITION, AND PREPARATION METHOD THEREFOR AND USE THEREOF” (GLOBAL HEALTH DRUG DISCOVERY INSTITUTE, priority 2022, published 2025).)
